The results in this text go back to patent US10822337B2, “TGF-β inhibitorC” (Rigel Pharmaceuticals, Inc., priority 2015, dated 2020).

In assay [1] the test system is TGF-β signaling (TGF-β pSMAD, MPC-11). The assay can be described thus: AlphaScreen SureFire SMAD3 (p-Ser423/425) assay, inhibition of TGF-β signaling. The format is cell-based. The note with it: Mus musculus, p-SMAD-3 (Ser423/425) in cell lysate after TGF-β stimulation. From the text: (§1) Example 2: AlphaScreen® SureFire® SMAD3 (p-Ser423/425) Assay
(§2) The p-SMAD-3 (Ser423/425) SureFire® assay has been designed to measure the phosphorylation of endogenous cellular p-SMAD-3 (Ser423/425) in cell lysates and is a system for the screening of both modulators of receptor activation (e.g. agonists and antagonists) as well as agents acting intracellularly, such as small molecule inhibitors of upstream events. The assay will measure p-SMAD-3 (Ser423/425) activation by either cloned or endogenous receptors, and can be applied to primary cells.
(§3) 1× Lysis buffer: 1 ml of 5× Lysis buffer was diluted with 4 ml of sterile water. After dilution, excess 1× Lysis buffer can be frozen and thawed up to 5 times without loss in activity.
(§4) P-SMAD-3 (Ser423/425) SureFire® Assay Protocols
(§5) Step A: Preparation of Buffers
(§6) Activation buffer: The buffer was warmed slowly to 37° C. and gently mixed to re-suspend. Activation buffer can be stored at room temperature with no loss in activity.
(§7) Reaction buffer: The buffer was kept at 4° C. while in use.
(§8) AlphaScreen® Protein A IgG Kit: The kit was stored at 4° C. in the dark.
(§9) Reaction buffer+Activation buffer+AlphaScreen® Acceptor beads: Reaction buffer (40 parts), Activation Buffer (10 parts) and Acceptor beads (1 part) were mixed and the mixture was stored at room temperature and used the same day. Mixture was added to 384-well plates; excess mixturewas discarded.
(§10) Dilution buffer+AlphaScreen® Donor beads: Dilution buffer (20 parts) and Donor beads (1 part) were mixed and the mixture was stored at room temperature and used the same day. Excess mixture was discarded.
(§11) Assay control samples: After reconstitution in 250 μl of water, lysates were at −20° C. in single use aliquots.
(§12) Step B: Preparation of Samples and Cells
(§13) 96-well Assay Protocol for 293FT and RMS13 adherent cells can be carried out manually or in high throughput with liquid handling robots.
(§14) The cells (80 μL of cells for 96 well plates) were plated in collagen coated tissue culture plates in RPMI or FreeStyle medium (Invitrogen) and incubated overnight. For manual analysis, 6 plates for GDF8, 6 plates for TGFβ, and optionally 6 plates for Alk5ca(ALKS constitutively active) were used.
(§15) The compound dilution plates were prepared as follows: 12 μL of DMSO was transferred into first column of 96-well plate, and 16 μL of DMSO was transferred into columns 2-12 of the 96-well plate. 12 μL of compound solution was transferred into first column of the DMSO-containing 96-well plate. Three-fold dilution was performed up to column 10 of the DMSO-containing 96-well plate.
(§16) Step C: Treatment and Analysis
(§17) The plate containing cells were treated with compounds for about 10 minutes, and then ligand was added. GDF8 or TGFb was added to plates to stimulate. 293FL cells were stimulatedfor 90 minutes at 37° C.; and RMS13 cells were stimulated for 60 minutes at 37° C. The medium was then removed from the cells, and 1× Lysis Buffer (about 25 μL) was added and the plate was gently agitated on plate shaker for 5-10 minutes.
(§18) The lysate (5 μL) was then placed into 384-well shallow plates avoiding the generation of bubbles. To this, the Reaction Buffer+Activation Buffer+AlphaScreen® Acceptor beadsmixture (5 μL) was added. The plate was sealed with adhesive cover and shielded from light (e.g., with metal foil), and agitated gently on plate shaker for 2 hours at room temperature.
(§19) Dilution buffer+AlphaScreen® Donor beads (2 μL) was then added, and the plate was intubated on the plate shaker for an additional 1½ hours. After completion, the plate was read on Synergy-4 or Enspire plate reader, using AlphaScreen® pSMAD3® settings.
(§20) Representative results for inhibition of GDF8 (data=GDF pSMAD (MPC11) (μM)) and TGF-β (data=TGF-β pSMAD (MPC-11) (μM)) signaling are shown in Table 1: […]

Assay [2] has as its system GDF8 signaling (GDF pSMAD, MPC11). The assay can be described thus: AlphaScreen SureFire SMAD3 (p-Ser423/425) assay, inhibition of GDF8 signaling. The note with it: Mus musculus, MPC-11, p-SMAD-3 (Ser423/425) in cell lysate after GDF8 stimulation. The format is cell-based.
Description: as §1, §2, §3, §4, §5, §6, §7, §8, §9, §10, §11, §12, §13, §14, §15, §16, §17, §18, §19, §20
(In general: Bead proximity is the source of the signal in Alpha formats.)

Structures are written as SMILES.

As to `COc1cccc(-c2nn3c(c2-c2ccc4cn[nH]c4c2)CCC3)c1` [Compound 28, 6-(2-(3-Methoxyphenyl)-5,6-dihydro-4H-pyrrolo[1,2-b]pyrazol-3-yl)-1H-indazole], the IC50 is 242 nM in assay [1] and 80.2 nM in assay [2].
As to `COc1cccc(-c2nn3c(c2-c2ccc4ncn(C)c4c2)CCC3)c1` [Compound 29, 6-(2-(3-Methoxyphenyl)-5,6-dihydro-4H-pyrrolo[1,2-b]pyrazol-3-yl)-1-methyl-1H-benzo[d]imidazole], the IC50 in assay [1] is 264 nM; in assay [2] it was 106 nM.
For the compound `COc1cccc(-c2nn3c(c2-c2ccc4ncsc4c2)CCC3)c1` [Compound 30, 6-(2-(3-Methoxyphenyl)-5,6-dihydro-4H-pyrrolo[1,2-b]pyrazol-3-yl)benzo[d]thiazole], the IC50 in assay [1] came out at 264 nM; in assay [2] it was 48.6 nM.
In the case of `FC(F)(F)c1cccc(-c2nn3c(c2-c2ccc4[nH]ncc4c2)CCC3)c1` [Compound 31, 5-(2-(3-Trifluoromethylphenyl)-5,6-dihydro-4H-pyrrolo[1,2-b]pyrazol-3-yl)-1H-indazole], the IC50 in assay [1] stood at 171 nM; in assay [2], 51 nM.
Turning to `FC(F)(F)c1cccc(-c2nn3c(c2-c2ccc4cn[nH]c4c2)CCC3)c1` [Compound 32, 6-(2-(3-Trifluoromethylphenyl)-5,6-dihydro-4H-pyrrolo[1,2-b]pyrazol-3-yl)-1H-indazole], the IC50 worked out at 292 nM in assay [1] and 45.1 nM in assay [2].
In the same order, the values of `Cn1cnc2ccc(-c3c(-c4cccc(C(F)(F)F)c4)nn4c3CCC4)cc21` [Compound 33, 1-Methyl-6-(2-(3-trifluoromethylphenyl)-5,6-dihydro-4H-pyrrolo[1,2-b]pyrazol-3-yl)-1H-benzo[d]imidazole] are 42.1 nM and 21.2 nM.
`FC(F)(F)c1cccc(-c2nn3c(c2-c2ccc4nccn4c2)CCC3)c1` [Compound 34, 6-(2-(3-Trifluoromethylphenyl)-5,6-dihydro-4H-pyrrolo[1,2-b]pyrazol-3-yl)imidazo[1,2-a]pyridine]: the results for the IC50 in assay [1] and in assay [2] were 34.8 nM and 8.3 nM, respectively.
`FC(F)(F)c1cccc(-c2nn3c(c2-c2ccc4ncsc4c2)CCC3)c1` [Compound 35, 6-(2-(3-Trifluoromethylphenyl)-5,6-dihydro-4H-pyrrolo[1,2-b]pyrazol-3-yl)benzo[d]thiazole]: the IC50 is 350 nM in assay [1] and 97.9 nM in assay [2].
Take `Cc1cccc(-c2nn3c(c2-c2ccc4[nH]ncc4c2)OCC3)c1` [Compound 36, 7-(1H-Indazol-5-yl)-6-(m-tolyl)-2,3-dihydropyrazolo[5,1-b]oxazole]: the IC50 in assay [1] amounted to 526 nM; in assay [2], 104 nM.
With `Cc1cccc(-c2nn3c(c2-c2ccc4cn[nH]c4c2)OCC3)c1` [Compound 37, 7-(1H-indazol-6-yl)-6-(m-tolyl)-2,3-dihydropyrazolo[5,1-b]oxazole], the IC50 in assay [1] is 193 nM; in assay [2], 36.5 nM.
With `Cc1cccc(-c2nn3c(c2-c2ccc4ncn(C)c4c2)OCC3)c1` [Compound 38, 7-(1-Methyl-1H-benzo[d]imidazol-6-yl)-6-(m-tolyl)-2,3-dihydropyrazolo[5,1-b]oxazole], the IC50 in assay [1] worked out at 57.9 nM; in assay [2], 22.6 nM.
For `Cc1cccc(-c2nn3c(c2-c2ccc4ncsc4c2)OCC3)c1` [Compound 39], the IC50 in assay [1] was 175 nM; in assay [2] it was 59.6 nM.
For `Cc1cccc(-c2nn3c(c2-c2ccc4[nH]ncc4c2)OCCC3)c1` [Compound 40, 3-(1H-Indazol-5-yl)-2-(m-tolyl)-6,7-dihydro-5H-pyrazolo[5,1-b][1,3]oxazine], the results for the IC50 in assay [1] and in assay [2] were 2450 nM and 657 nM, respectively.
In the case of `Cc1cccc(-c2nn3c(c2-c2ccc4ncn(C)c4c2)OCCC3)c1` [Compound 41, 3-(1-Methyl-1H-benzo[d]imidazol-6-yl)-2-(m-tolyl)-6,7-dihydro-5H-pyrazolo[5,1-b][1,3]oxazine], the half-maximal inhibitory concentration (IC50) in assay [1] stood at 188 nM; in assay [2], 80.8 nM.
In the same order, the values of `Cc1cccc(-c2nn3c(c2-c2ccc4nccn4c2)OCCC3)c1` [Compound 42, 3-(Imidazo[1,2-a]pyridin-6-yl)-2-(m-tolyl)-6,7-dihydro-5H-pyrazolo[5,1-b][1,3]oxazine] are 331 nM and 112 nM.
As for `Cc1cccc(-c2nn3c(c2-c2ccc4ncsc4c2)OCCC3)c1` [Compound 43, 3-(benzo[d]thiazol-6-yl)-2-(m-tolyl)-6,7-dihydro-5H-pyrazolo[5,1-b][1,3]oxazine], the figures for the IC50 in assay [1] and in assay [2] were 501 nM and 147 nM, respectively.
As for `Cc1cccc(-c2nn3c(c2-c2ccc4nccn4c2)OCC3)c1` [Compound 44, 7-(imidazo[1,2-a]pyridin-6-yl)-6-(m-tolyl)-2,3-dihydropyrazolo[5,1-b]oxazole], the IC50 in assay [1] came out at 106 nM; in assay [2] it was 23.3 nM.
Consider `Fc1ccc(-c2nn3c(c2-c2ccc4ncccc4c2)CCC3)cc1` [Compound 45, 6-(2-(4-Fluorophenyl)-5,6-dihydro-4H-pyrrolo[1,2-b]pyrazol-3-yl)quinoline], for which the IC50 in assay [1] amounted to 12600 nM; in assay [2] it was 1080 nM.
For the compound `Cc1cccc(-c2nn3c(c2-c2ccc4ncccc4c2)CCC3)c1` [Compound 46, 6-(2-(m-Tolyl)-5,6-dihydro-4H-pyrrolo[1,2-b]pyrazol-3-yl)quinoline], the IC50 in assay [1] came to 1510 nM; in assay [2] it was 234 nM.
With `Cc1cc(-c2nn3c(c2-c2ccc4ncccc4c2)CCC3)ccc1F` [Compound 47, 6-(2-(4-Fluoro-3-methylphenyl)-5,6-dihydro-4H-pyrrolo[1,2-b]pyrazol-3-yl)quinoline], the values for the IC50 in assay [1] and in assay [2] were 2520 nM and 335 nM, respectively.
In the case of `COc1cccc(-c2nn3c(c2-c2ccc4ncccc4c2)CCC3)c1` [Compound 48, 6-(2-(3-Methoxyphenyl)-5,6-dihydro-4H-pyrrolo[1,2-b]pyrazol-3-yl)quinoline], the IC50 in assay [1] came to 4460 nM; in assay [2], 610 nM.
`Clc1cccc(-c2nn3c(c2-c2ccc4ncccc4c2)CCC3)c1` [Compound 49, 6-(2-(3-Chlorophenyl)-5,6-dihydro-4H-pyrrolo[1,2-b]pyrazol-3-yl)quinoline]: the results for the IC50 in assay [1] and in assay [2] were 926 nM and 129 nM, respectively.
As for `FC(F)(F)c1cccc(-c2nn3c(c2-c2ccc4ncccc4c2)CCC3)c1` [Compound 50, 6-(2-(3-Trifluoromethylphenyl)-5,6-dihydro-4H-pyrrolo[1,2-b]pyrazol-3-yl)quinoline], the IC50 was 4190 nM in assay [1] and 473 nM in assay [2].
As to `Cc1cccc(-c2nn3c(c2-c2ccc4ncccc4c2)OCC3)c1` [Compound 51, 7-(Quinolin-6-yl)-6-(m-tolyl)-2,3-dihydropyrazolo[5,1-b]oxazole], the IC50 was 2950 nM in assay [1] and 373 nM in assay [2].
Turning to `Cc1cccc(-c2nn3c(c2-c2ccc4nccnc4c2)OCC3)c1` [Compound 52, 7-(Quinoxalin-6-yl)-6-(m-tolyl)-2,3-dihydropyrazolo[5,1-b]oxazole], the IC50 in assay [1] came out at 203 nM; in assay [2], 47.7 nM.
In the same order, the values of `Fc1ccc(-c2nn3c(c2-c2ccc4nccnc4c2)CCC3)cc1` [Compound 53, 6-(2-(4-Fluorophenyl)-5,6-dihydro-4H-pyrrolo[1,2-b]pyrazol-3-yl)quinoxaline] are 2340 nM and 395 nM.
With `Cc1cccc(-c2nn3c(c2-c2ccc4nccnc4c2)CCC3)c1` [Compound 54, 6-(2-(m-Tolyl)-5,6-dihydro-4H-pyrrolo[1,2-b]pyrazol-3-yl)quinoxaline], the IC50 came to 204 nM in assay [1] and 60.2 nM in assay [2].

The term IC50 denotes the concentration that gives 50% inhibition.
